Patent publication US20130225694A1, “COMPOSITIONS AND METHODS OF INHIBITING RETINAL DEGENERATION” (Oklahoma Medical Research Foundation, priority 2012, published 2013)

Experiments:
[1] = target: T1, RPE65 isomerohydrolase (Rattus norvegicus, UniProt O70276); experiment: Isomerohydrolase activity assay with rat RPE microsomes (Example 2); type: biochemical
T1 construct: 50 μg microsomal proteins from the rat RPE were added into 200 μl of reaction buffer; from tissue; host or cells: rat eyecup/RPE microsomes
T1 sequence (O70276 1-533): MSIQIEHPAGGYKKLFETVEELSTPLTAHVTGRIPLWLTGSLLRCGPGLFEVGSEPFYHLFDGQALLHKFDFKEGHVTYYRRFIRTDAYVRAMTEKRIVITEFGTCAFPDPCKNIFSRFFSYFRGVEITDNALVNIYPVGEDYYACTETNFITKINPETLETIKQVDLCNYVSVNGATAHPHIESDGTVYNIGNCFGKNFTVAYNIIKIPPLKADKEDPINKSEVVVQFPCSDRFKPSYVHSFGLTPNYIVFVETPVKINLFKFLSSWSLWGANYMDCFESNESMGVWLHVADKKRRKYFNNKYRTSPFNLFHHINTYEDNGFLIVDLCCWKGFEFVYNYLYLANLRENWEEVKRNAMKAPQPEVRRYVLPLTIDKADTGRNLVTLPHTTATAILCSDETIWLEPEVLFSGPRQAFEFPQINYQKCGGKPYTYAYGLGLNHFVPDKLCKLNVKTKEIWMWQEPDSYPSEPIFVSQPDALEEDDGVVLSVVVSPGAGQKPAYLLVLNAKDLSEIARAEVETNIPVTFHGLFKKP
Description: Isomerohydrolase activity assay and PBN inhibition—Rats were sacrificed, and eyes were enucleated and dissected to remove the anterior part including lens, vitreous, and retina. The remaining eyecups containing RPE were sonicated 3 times for 20 seconds in a cold 0.32 M sucrose/0.1 M sodium phosphate buffer (pH 7.4). The homogenate was centrifuged (20 minutes, 20,000 g) to sediment sclera, unbroken cells, nuclei and mitochondria. The obtained supernatant was recentrifuged (1 hour, 100,000 g), and the microsomal pellet was resuspended in 10 mM 1,3-bis[tris(hydroxymethyl)-methylamino]propane (BTP), (pH 8.0) and 100 mM NaCl, and stored at −80° C. All-trans-[11,12-^3H]-retinol (1 mCi/ml, 45.5 Ci/mmol, American Radiolabeled Chemical, Inc., St. Louis, Mo.) in N,N-dimethyl formamide was used as the substrate for the isomerohydrolase assay. […] The upper layer was collected, and the generated retinoids were analyzed by normal phase HPLC as described (38). […] The isomerohydrolase activity was calculated from the area of the 11-cis-retinol peak using Radiomatic 610TR software (Perkin Elmer, Boston, Mass.) with synthetic 11-cis-[^3H]-retinol as a standard. […] The inhibition constant for PBN was calculated from the following equation: […] where [I]=concentration of PBN, Vm^i=maximal velocity in the presence of Vm=maximal velocity in the absence of PBN. […]

[2] = test system: retinal retinol dehydrogenases (RDHs); experiment: Assay for retinal RDH activity in mouse retinal microsomes; type: biochemical; settings: 2 mM PBN, NADPH-dependent reduction of all-trans-retinal
Description: Assay for retinal RDH activity—The effect of PBN on retinal dehydrogenase (RDH) enzymes was determined in vitro using mouse retinal microsomes. […] Homogenates were centrifuged at 10,000 g for 10 minutes at 4° C. The resulting supernatants were then centrifuged at 100,000 g for 1 hour at 4° C., and microsomal pellets were resuspended in storage buffer [50 mM Tris-Cl (pH 7.2), 1 mM EDTA, 20% glycerol, 1 mM dithiothreitol, and the protease inhibitors described above]. Protein concentrations were measured, and microsomal fractions were stored at −80° C. after snap freezing in liquid nitrogen.
Reactions were carried out in 1 ml reaction buffer [100 mM Tris-HCl (pH 7.2), 200 mM NaCl, 1 mM dithiothreitol, 2 mg/ml bovine serum albumin, and 1% (v/v) glycerol] with 5 μg of microsomes, 0 or 75 μM of NADPH, 0 or 2 mM PBN, and increasing concentrations of the substrate all-trans-retinal. […] Retinoids were extracted with 2 volumes of hexane and analyzed by HPLC. […] The peaks of all-trans-retinal (substrate) and all-trans-retinol (product of the reaction) were identified and quantified by comparison with pure retinoid isomeric standards. […] For each condition the non-enzymatic conversion of all-trans-retinal to all-trans-retinol measured in absence of NADPH was subtracted from the conversion obtained with NADPH to determine the NADPH-dependant activity of retinal RDHs. […]

CC(C)(C)/[N+]([O-])=C/c1ccccc1 [Compound 1, α-phenyl-N-tert-butyl nitrone]
inhibition of 11-cis-retinol generation ([1]; 1 mM PBN): almost complete inhibition
IC50 ([1]; rat RPE microsomes, 0.2 μM all-trans-[3H]-retinol, 1 h 37° C., read-out: apparent IC50 of isomerohydrolase activity): 100 µM
inhibition of retinal RDH activity [2]: did not inhibit
